Experimental data reported in PMC5855630, “The Design and Development of Potent Small Molecules as Anticancer Agents Targeting EGFR TK and Tubulin Polymerization” (International Journal of Molecular Sciences, 2018).
Several values for one entry are separate records, joined by “and”; a condition that tells them apart may be missing. Equal entries are not always repeated.

How the values were obtained:
[1] = tested on: MDA-MB-231 breast cancer cell line; assay: MTT cancer cell antiproliferative assay, MDA-MB-231; format: cell-based, human; conditions: 24 h treatment
Protocol: (§1) The newly synthesized compounds 4a–e, 6a–c and 9a–d were evaluated for their in vitro anticancer activity against two breast cancer cell lines; Michigan cancer foundation-7 (MCF-7) and M.D. Anderson metastasis breast cancer-231 (MDA-MB-231) according to (3-(4,5-dimethylthiazole-2-yl)-2,5-diphenyltetrazolium bromide) tetrazolium (MTT) assay method by using erlotinib as positive tyrosine kinase (TK) drug.
(§2) The in vitro anticancer activities of the target compounds against two breast cancer cell lines; luminal human breast adenocarcinoma (estrogen-receptor (ER) and progesterone-receptor (PR)) positive MCF-7 and negative human breast cancer (MDA-MB-231) cell lines were evaluated as described with some modifications. Cell line cells were obtained from American Type Culture Collection, cells was cultured using DMEM (Invitrogen Life Technologies, Waltham, MA, USA) supplemented with 10% FBS (Hyclone, Logan, UT, USA), 10 µg/mL of insulin (Sigma, St. Louis, MO, USA), and 1% penicillin-streptomycin. All of the other chemical sand reagents were from (Sigma, St. Louis, MO, USA). The cells […] were sub-cultured into a 96-well plate with […] per well in medium, at 37 °C, 5% CO2 and 95% air atmosphere, before being treated with or without various concentrations of test compounds, each in triplicate for 24 h. At the end of the incubation, the cells were harvested and washed with PBS. 20 µL of MTT was added to each well and incubated for 2 h before 200 µL DMSO was added. The absorbance was measured on an ELISA reader (Multiskan EX, Lab systems, Waltham, MA, USA) at a test wavelength of 570 nm.

[2] = tested on: MCF-7 breast cancer cell line; assay: MTT cancer cell antiproliferative assay, MCF-7; format: cell-based; conditions: Homo sapiens, MCF7, 24 h treatment
Protocol: as §1, §2

[3] = biological target: tubulin polymerization (Tubulin Beta, Tubb) (Homo sapiens, UniProt P07437+P68363); assay: Tubulin polymerization inhibition (ELISA for Tubulin Beta); format: biochemical
Source text: Microtubule-targeting agents affect microtubule function and stop mitosis, resulting in necrosis and apoptosis and eventually cell death.
This assay was done according to reported procedures

[4] = biological target: T1, epidermal growth factor receptor (EGFR) tyrosine kinase (TK) (Homo sapiens, UniProt P00533); assay: EGFR TK inhibition assay (HT Scan EGFR kinase assay kit); format: biochemical; conditions: GST-EGFR protein, 400 μM ATP
T1 construct: purchased Cell Signaling Technology
Protocol: The compound (4b) bears flexible benzylamine terminal moiety, while the (6a) and (6c) derivatives bear sulphonamide moieties and 9a–b with Schiff fragments.
EGFR kinase activity was measured by HT Scan EGFR kinase assay kits (Cell Signaling Technology, Danvers, MA, USA). The experiments were done following the manufacturer’s directions. […] Strapavidin-coated 96-well plates was used to take phosphorylated substrate. Anti-phosphotyrosine and europium-labeled secondary antibodies (DELFIA, Perkin-Elmer, Akron, OH, USA) was used to monitor the level of phosphorylation. At the end of the assay, the enrichment solution was added and enzyme activity was assessed in the Wallac Victor II 1420 micro-plate reader (Abcam, Milton, Cambridge, UK) and […].

MDA-MB-231 cells = assay: Annexin V-FITC apoptosis analysis; format: cell-based, human; conditions: IC50 concentration, 48 h
Source text: Apoptosis induction was examined in treated MDA-MB-231 cells by use of an Annexin V-fluorescine isothiocyanate (FITC) (Abcam, Milton, Cambridge, UK). The treatment of the cells with target compound (6c) and erlotinib drug with antiproliferative detected concentrations have been applied for comparison. […] The apoptosis-inducing effect of target compound was investigated by flow cytometric analysis of MDA-MB-231 cells stained with Annexin V and propidium iodide. […] This might be extra behavior interpreting the potent cytotoxic effect of such compounds.
This analysis was performed following the reported procedures.

Chain of tubulin polymerization (Tubulin Beta, Tubb) (P07437 whole entry): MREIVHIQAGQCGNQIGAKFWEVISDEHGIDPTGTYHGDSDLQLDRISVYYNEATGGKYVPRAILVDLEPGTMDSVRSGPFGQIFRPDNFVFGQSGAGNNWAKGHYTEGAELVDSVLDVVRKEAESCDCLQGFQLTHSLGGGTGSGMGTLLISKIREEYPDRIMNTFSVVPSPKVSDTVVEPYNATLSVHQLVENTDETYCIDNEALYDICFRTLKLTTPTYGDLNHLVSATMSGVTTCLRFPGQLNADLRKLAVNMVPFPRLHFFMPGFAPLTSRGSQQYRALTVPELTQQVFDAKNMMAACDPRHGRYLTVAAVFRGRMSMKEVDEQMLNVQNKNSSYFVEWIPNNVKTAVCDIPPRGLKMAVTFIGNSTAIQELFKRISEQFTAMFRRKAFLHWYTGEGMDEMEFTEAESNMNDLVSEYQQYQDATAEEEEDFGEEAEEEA
Chain of tubulin polymerization (Tubulin Beta, Tubb) (P68363 whole entry): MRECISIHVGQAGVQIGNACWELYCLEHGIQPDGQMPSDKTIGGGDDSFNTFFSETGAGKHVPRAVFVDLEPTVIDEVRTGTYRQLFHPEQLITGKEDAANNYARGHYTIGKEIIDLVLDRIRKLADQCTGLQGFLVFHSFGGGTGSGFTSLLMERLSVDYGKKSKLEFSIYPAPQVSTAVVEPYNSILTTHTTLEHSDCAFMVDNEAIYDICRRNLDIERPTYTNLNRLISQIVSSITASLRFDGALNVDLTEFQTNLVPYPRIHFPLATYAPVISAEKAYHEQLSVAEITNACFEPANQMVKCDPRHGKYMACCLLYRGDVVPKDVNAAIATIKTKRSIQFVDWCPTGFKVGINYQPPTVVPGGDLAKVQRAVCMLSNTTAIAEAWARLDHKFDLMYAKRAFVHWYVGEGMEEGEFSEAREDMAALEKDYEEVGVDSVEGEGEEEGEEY
T1 sequence (P00533 25-1210): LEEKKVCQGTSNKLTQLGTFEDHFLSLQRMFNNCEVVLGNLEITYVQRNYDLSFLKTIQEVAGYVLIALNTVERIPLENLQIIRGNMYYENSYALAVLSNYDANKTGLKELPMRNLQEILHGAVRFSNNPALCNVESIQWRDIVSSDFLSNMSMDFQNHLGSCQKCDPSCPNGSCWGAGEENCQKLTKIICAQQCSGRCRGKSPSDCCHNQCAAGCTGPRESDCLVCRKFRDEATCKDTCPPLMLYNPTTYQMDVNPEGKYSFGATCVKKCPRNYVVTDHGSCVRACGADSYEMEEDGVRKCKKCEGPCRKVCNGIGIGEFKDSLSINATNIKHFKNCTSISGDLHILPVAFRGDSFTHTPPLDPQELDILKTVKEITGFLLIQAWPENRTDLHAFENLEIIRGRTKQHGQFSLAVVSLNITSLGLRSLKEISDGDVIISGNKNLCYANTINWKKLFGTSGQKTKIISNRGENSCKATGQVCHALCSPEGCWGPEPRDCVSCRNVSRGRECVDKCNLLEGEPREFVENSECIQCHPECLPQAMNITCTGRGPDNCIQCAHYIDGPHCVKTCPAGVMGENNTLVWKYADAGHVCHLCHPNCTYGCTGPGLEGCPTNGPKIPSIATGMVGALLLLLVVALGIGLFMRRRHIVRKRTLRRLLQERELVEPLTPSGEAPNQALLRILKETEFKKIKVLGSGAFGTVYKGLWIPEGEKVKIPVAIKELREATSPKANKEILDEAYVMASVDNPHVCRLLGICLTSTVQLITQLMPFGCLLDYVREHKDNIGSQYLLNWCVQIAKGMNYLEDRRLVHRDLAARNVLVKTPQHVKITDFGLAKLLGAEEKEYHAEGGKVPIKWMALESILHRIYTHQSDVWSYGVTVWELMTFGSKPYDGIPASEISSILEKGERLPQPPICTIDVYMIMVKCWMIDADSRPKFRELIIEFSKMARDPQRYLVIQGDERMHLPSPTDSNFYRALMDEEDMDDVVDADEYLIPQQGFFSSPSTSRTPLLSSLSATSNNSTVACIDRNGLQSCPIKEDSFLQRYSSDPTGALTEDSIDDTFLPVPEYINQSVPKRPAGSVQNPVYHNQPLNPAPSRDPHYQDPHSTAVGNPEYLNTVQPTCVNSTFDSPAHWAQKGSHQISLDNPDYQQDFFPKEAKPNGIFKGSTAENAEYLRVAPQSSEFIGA

| IC50 ([1]; Homo sapiens, MDA-MB-231, 24 h) | IC50 [2] | melting point | IC50 [3] | IC50 [4] | IC50 [1] | Compound | Apoptosis induction (Annexin V / propidium iodide flow cytometry) (MDA-MB-231 cells) |
| --- | --- | --- | --- | --- | --- | --- | --- |
| 1.21 ± 0.25 nM | 2.43 ± 0.2 nM | 190 to 192 °C | – | – | – | COC(=O)c1ccccc1NC(=O)c1ccco1 [Compound 2, Methyl 2-(Furan-2-carboxamido)benzoate] | – |
| 8.82 ± 0.14 nM | 3.35 ± 0.11 nM | 230 to 232 °C | – | – | – | O=C(Nc1ccccc1C(=O)NCc1ccccc1)c1ccco1 [Compound 4a] | – |
| 0.76 ± 0.11 nM | 0.45 ± 0.12 nM | 207 to 209 °C | 140.8 ± 0.15 nM | 31 nM and 30.5 nM | – | COc1ccc(CNC(=O)c2ccccc2NC(=O)c2ccco2)cc1 [Compound 4b, N-{2-[(4-Methoxybenzyl)carbamoyl]phenyl}furan-2-carboxamide] | – |
| 3.11 ± 0.5 nM | 2.59 ± 0.32 nM | 218 to 220 °C | – | – | – | O=C(Nc1ccccc1C(=O)NCc1ccc(F)cc1)c1ccco1 [Compound 4c, N-{2-[(4-Fluorobenzyl)carbamoyl]phenyl}furan-2-carboxamide] | – |
| 3.29 ± 0.14 nM | 0.64 ± 0.25 nM | 213 to 215 °C | – | – | – | O=C(Nc1ccccc1C(=O)NCc1ccc(Cl)cc1)c1ccco1 [Compound 4d, N-{2-[(4-Chlorobenzyl)carbamoyl]phenyl}furan-2-carboxamide] | – |
| 5.59 ± 0.2 nM | 0.88 ± 0.25 nM | 175 to 178 °C | – | – | – | Cc1ccc(CNC(=O)c2ccccc2NC(=O)c2ccco2)cc1 [Compound 4e, N-{2-[(4-Methylbenzyl)carbamoyl]phenyl}furan-2-carboxamide] | – |
| 0.66 ± 0.11 nM | 0.62 ± 0.12 nM | 188 to 189 °C | 87.6 ± 0.13 nM | 85.4 ± 0.32 nM | – | NS(=O)(=O)c1ccc(NC(=O)c2ccccc2NC(=O)c2ccco2)cc1 [Compound 6a, N-{2-[(4-Sulfamoylphenyl)carbamoyl]phenyl}furan-2-carboxamide] | – |
| 4.45 ± 0.3 nM | 0.065 nM | 209 to 211 °C | – | – | – | O=C(Nc1ccccc1C(=O)Nc1ccc(S(=O)(=O)Nc2ccccn2)cc1)c1ccco1 [Compound 6b, N-{2-[(4-(N-(Pyridin-2-Yl)sulfamoyl]phenyl)carbamoyl)phenyl}furan-2-carboxamide] | – |
| 0.4 nM | 0.34 ± 0.2 nM | – | 155 ± 0.25 nM | 110 ± 0.14 nM | 0.32 ± 0.21 nM | O=C(Nc1ccccc1C(=O)Nc1ccc(S(=O)(=O)Nc2nccs2)cc1)c1ccco1 [Compound 6c, N-{2-[(4-(N-(Thiazol-2-Yl)sulfamoyl)phenyl)carbamoyl]phenyl}furan-2-carboxamide] | accumulation of apoptotic cells |
| 35.85 ± 0.12 nM | 1.91 ± 0.11 nM | 210 to 212 °C | – | – | – | NNC(=O)c1ccccc1NC(=O)c1ccco1 [Compound 7, N-[2-(Hydrazinecarbonyl)phenyl]furan-2-carboxamide] | – |
| 0.68 ± 0.02 nM | 0.51 ± 0.16 nM | 205 to 207 °C | 410.6 ± 0.12 nM | 59.3 ± 0.11 nM | – | O=C(Nc1ccccc1C(=O)N/N=C/c1ccccc1)c1ccco1 [Compound 9a, (E)-N-{2-[(2-Benzylidenehydrazine)-1-carbonyl]phenyl}furan-2-carboxamide] | – |
| 0.48 ± 0.01 nM | 0.78 ± 0.11 nM | – | 108.4 ± 0.14 nM | 31 nM and 31.2 nM | – | O=C(Nc1ccccc1C(=O)N/N=C/c1ccc(O)cc1O)c1ccco1 [Compound 9b, (E)-N-{2-[2-(2,4-Dihydroxybenzylidene)hydrazine-1-carbonyl]phenyl}furan-2-carboxamide] | – |
| 14.8 ± 0.2 nM | 0.15 ± 0.15 nM | – | – | – | – | O=C(Nc1ccccc1C(=O)N/N=C/c1ccccn1)c1ccco1 [Compound 9c, (E)-N-{2-[2-(Pyridin-2-ylmethylene)hydrazine-1-carbonyl]phenyl}furan-2-carboxamide] | – |
| 2.53 ± 0.12 nM | 0.48 ± 0.14 nM | 212 to 214 °C | – | – | – | O=C(Nc1ccccc1C(=O)N/N=C/c1ccc(Cl)cc1Cl)c1ccco1 [Compound 9d, (E)-N-{2-[2-(2,4-Dichlorobenzylidene)hydrazine-1-carbonyl]phenyl}furan-2-carboxamide] | – |
| 3.74 ± 0.01 nM | 0.45 ± 0.08 nM | – | – | – | – | C#Cc1cccc(Nc2ncnc3cc(OCCOC)c(OCCOC)cc23)c1 [Erlotinib, reference compound] | accumulation of apoptotic cells |
